Laboratory results as given in PubChem BioAssay (NCI).
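These data come from cells grown in 96-well plates and exposed to compound for 48 hours at five concentrations. Abbreviation: GI50, concentration required for 50% inhibition of growth. TGI: total growth inhibition.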

Experiments:
Assay in all cases: NCI anticancer screen, dose series, 48 h
[1] = test system: SF-295 CNS
[2] = test system: RXF 393 renal
[3] = test system: BT-549 breast
[4] = test system: OVCAR-3 ovarian
[5] = test system: CAKI-1 renal
[6] = test system: NCI-H522 lung
[7] = test system: SK-MEL-2 melanoma
[8] = test system: SR leukemia
[9] = test system: SK-MEL-5 melanoma
[10] = test system: NCI-H23 lung

SMILES	GI50 [1]	TGI [1]	GI50 [2]	TGI [2]	GI50 [3]	TGI [3]	GI50 [4]	TGI [4]	GI50 [5]	TGI [5]	GI50 [6]	TGI [6]	GI50 [7]	TGI [7]	GI50 [8]	TGI [8]	GI50 [9]	TGI [9]	GI50 [10]	TGI [10]
Clc1nc(Cl)c2ncn(C/C=C/Cn3cnc4c(Cl)nc(Cl)nc43)c2n1	16.8 µM	31.3 µM	2.3 µM	6.42 µM	16.7 µM	31.3 µM	12.2 µM	25.4 µM	13.9 µM	28.1 µM	6.75 µM	22.7 µM	14.2 µM	29.3 µM	14.9 µM	32.2 µM	16.5 µM	31.1 µM	18.7 µM	38 µM
CCN1CCC2(CC1)NC(=O)c1c(c3ccc(Cl)c(Cl)c3n1C)C2C#N (centres undefined)	1.79 µM	4.35 µM	1.24 µM	4.13 µM	3.61 µM	15.2 µM			2.25 µM	8.23 µM	5.81 µM	21.7 µM	2.02 µM	4.42 µM	1.76 µM	5.69 µM	1.61 µM	3.06 µM	3.71 µM	16 µM
C/C(=C1/N=C(c2ccccc2)OC1=O)c1ccc(C)cc1		> 100 µM		> 100 µM		> 100 µM		> 100 µM		> 100 µM		> 100 µM		> 100 µM		> 100 µM		> 100 µM		> 100 µM
CCOC(=O)/C(=C/c1ccccc1)C(=O)c1ccccc1	4.19 µM	15.2 µM	2.04 µM	3.92 µM	6.29 µM	19.6 µM	8.14 µM	20.4 µM	3.04 µM	10.4 µM	2.14 µM	4.5 µM			3.43 µM	18 µM	2.91 µM	9.35 µM	3.75 µM	16.5 µM
CN1C(=O)N(C)C2C1NN=c1s/c(=C\c3c[nH]c4ccccc34)c(=O)n12 (centres undefined)	0.0304 µM	33.6 µM			0.0557 µM	> 100 µM	0.0325 µM	> 100 µM	0.0309 µM	> 100 µM	0.0331 µM	18.9 µM	34.6 µM	> 100 µM	0.0345 µM	> 100 µM	0.0347 µM	0.184 µM	0.0479 µM	> 100 µM
c1ccc(CCCNc2nnnc3ccccc23)cc1		> 100 µM		> 100 µM		> 100 µM		> 100 µM		> 100 µM		> 100 µM		> 100 µM		> 100 µM		> 100 µM		> 100 µM
Cc1coc2c1CC1OC1(C)CCC1OC1(C)C2 (centres undefined)		> 100 µM				> 100 µM		> 100 µM		> 100 µM		> 100 µM		> 100 µM		> 100 µM		> 100 µM		> 100 µM
COc1cc([N+](=O)[O-])c(S(=O)(=O)O)cc1N						> 100 µM		> 100 µM		> 100 µM		> 100 µM		> 100 µM		> 100 µM		> 100 µM		> 100 µM
Cc1c2cnccc2c(C)c2c1c1cc(C(=O)O)ccc1n2C	1.16 µM	6.65 µM	0.666 µM	2.33 µM	1.47 µM	4.82 µM	1.35 µM	5.68 µM	0.616 µM	8.34 µM	0.943 µM	3.9 µM	1.38 µM	4.03 µM	0.435 µM	3.98 µM	0.897 µM	2.44 µM	0.774 µM	3.28 µM
COc1ccc2c(c1)CC[C@@H]1[C@@H]2CC[C@]2(C)c3[nH]ncc3C[C@@H]12	12.6 µM	27.5 µM	11.3 µM	28 µM	26 µM	> 50 µM	8.9 µM	18.6 µM	16.2 µM	48.8 µM	10.3 µM	27.4 µM	17 µM	> 50 µM	2.14 µM	15.3 µM	8.16 µM	16.4 µM		
COc1ccc(S(=O)(=O)NC2=NCCN2C(=S)SN2CCn3c2nsc3=S)cc1OC	20.9 µM	56.2 µM	3.1 µM	13 µM	30.9 µM	> 100 µM	21 µM	47 µM	16.5 µM	61.8 µM	13 µM	38.8 µM	24.1 µM	75.1 µM	22.6 µM	> 100 µM	25.3 µM	74.1 µM	22.4 µM	53 µM
CCN1/C(=C/C=C/C=C/c2sc3ccccc3[n+]2CC)Sc2ccccc21	0.153 µM	0.508 µM	0.805 µM	2.53 µM	0.213 µM	1.18 µM	0.331 µM	1.18 µM	0.376 µM	2.29 µM	0.281 µM	1.51 µM	0.979 µM	2.72 µM	0.0304 µM	1.02 µM	0.314 µM	1.42 µM	0.164 µM	2.33 µM
Cc1cc(C(=O)N[C@@H](CCC(=O)O)C(=O)O)sc1CC[C@@H]1CNc2nc(N)[nH]c(=O)c2C1	0.0496 µM	> 100 µM	< 0.0153 µM	> 100 µM	0.0883 µM	> 100 µM	0.048 µM	> 100 µM	< 0.01 µM	> 100 µM	0.0322 µM	> 100 µM	7.78 µM	> 100 µM	< 0.01 µM	> 100 µM	0.0679 µM	> 100 µM	0.0952 µM	> 100 µM
FC(F)(F)c1[nH]ncc1-c1nc2c(N3CCCCC3)cc3[nH]ncc3c2c2c1CCCC2	0.857 µM	3.16 µM	0.395 µM	1.07 µM	0.643 µM	1.37 µM	1.07 µM	3.14 µM	0.711 µM	3.06 µM	0.485 µM	3.24 µM	0.968 µM	2.31 µM	0.235 µM	> 50 µM	0.637 µM	1.5 µM	0.791 µM	2.99 µM
